From patent US20200390102A1, “SYNERGISTIC ANTIMICROBIAL COMPOSITION” (DDP SPECIALTY ELECTRONIC MATERIALS US, INC., priority 2017, published 2020)

Assays:
[1] = tested on: Thermus thermophilus (DSM: 579); test: Synergy in the planktonic phase, 48 h biocide challenge at 60° C. with dilution-series regrowth readout; format: cell-based
Method: Experiments using Thermus thermophdus (DSM: 579) as a test organism were also performed. In these experiments, the total concentration of biocides was 300 ppm for the combined total actives, the temperature at which the experiments were performed was 60° C., the media to grow Thermus thermophdus was DSMZ DSM 74-Media at pH 8.0. (Yeast extract (BD Difco) 4.0 g, Proteose peptone Nr. 3 (BD Difco) 8.0 g, NaCl 2.0 g, distilled water added to 1 L). The challenging with biocides against Thermus thermophilus was done in a standard ocean matrix with a similar salinity of 2% (similar to the media where they are cultured in). Once again, each experiment was done in triplicate.
The inoculated assay block was challenged at 60° C. for 48 hours. The inoculum prepared added between to 1*10^8 to 1*10^9 total cells/mL (determined by MPN analysis). After 48 hours of challenge with biocide, 20 μL aliquots of each treatment (well) were added to one of several 96 well plates with DSM 74-media. These 96 well plates were filled with ‘recovery’ media (DSM 74-Media). One of these plates was prepared for each column of the assay block. 180 μL recovery media was added to each well of a 96 well plate, except for column 1 of the recovery plate. This column was filled with 180 μL of one column of the assay block. The last three columns on the recovery plate were not pipetted. These columns represented the no template control for verifying proper plate set up and data reliability. The assay block sample was then diluted in steps of 10 fold by transferring 20 μL from e.g. columns 1 to column 2 and from column 2 to column 3 (until column 9) by applying a multichannel pipet in each recovery plate. […]
The recovery plates were allowed to regrow for 4-6 days and subsequently read (checked for microbial growth). This was done in duplicate for each point (the duplicate is already present in the biocide block viz. each point is truly determined in duplicate). […] Turbidity was checked in log scale reading the recovery plates. Turbidity was recorded via presence/absence and gave the log kill range (from the made dilution series). […]

[2] = tested on: Pseudomonas aeruginosa (ATCC […]) and Escherichia coli (ATCC 10145) combined inoculum; test: Synergy in the planktonic phase, 48 h biocide challenge with regrowth (turbidity) readout; format: cell-based; details: P. aeruginosa/E. coli, 48 h challenge at 30° C., phosphate buffer pH 7.3
Method: Pseudomonas aeruginosa (ATCC […]) and Escherichia coli (ATCC 10145) cultures were separately prepared from glycerol stocks. First they were streak plated and validated with a microscope. Single colonies were picked and used to inoculate 200 mL shake flasks that were grown statically overnight at 30° C. (30 grams/L Tryptic Soy Broth) to produce the initial inoculum. A deep-well 96 well challenge plate (2 mL maximum well volume) was prepared using 900 μL/well phosphate buffer at pH 7.3, (0.0027M potassium chloride, 0.137 M sodium chloride). Inoculation took place at the start of the experiments (with a 100 μL combined inoculum, adding to the 900 μL buffer to total 1 mL/well). The inoculum added between 1*10^8 and 1*10^9 total cells/mL based on OD600 measurement. […]
The inoculated assay block was challenged at 30° C. for 48 hours. […] This was done in triplicate for each point (the triplicate is already present in the biocide block viz. each point is truly determined in triplicate). […]
The recovery plates were subsequently read (checked for microbial growth) at 72 hours after addition of the culture, to recovery media. Ranking of biocidal efficacy was done by recording the development of turbidity within each well (determined by visual inspection). […] Ranking was done per average value of three data points determined per experiment. (Recorded in log regrowth). […]

Compound | Glyoxal stand alone 48 h pass ([1]; T. thermophilus, glyoxal alone, 48 h challenge at 60° C., ocean matrix 2% salinity) [ppm] | Sensitivity of Thermus thermophilus to Glyoxal ([1]; vs. Pseudomonas aeruginosa and E. coli) | Glyoxal stand alone 48 h pass ([2]; glyoxal alone) [ppm] | THPS stand alone 48 h pass ([1]; T. thermophilus, THPS alone, 48 h challenge at 60° C., ocean matrix 2% salinity) [ppm] | THPS stand alone 48 h pass ([2]; THPS alone) [ppm]
O=CC=O [Glyoxal, glyoxal] | 59 | *Thermus thermophilus is more sensitive to Glyoxal vs. Pseudomonas aeruginosa and E. coli. | 875 |  | 
tetrakis(hydroxymethyl)phosphonium sulfate [THPS] |  |  |  | 300 | 130
